pIC50: −log10 of the molar value.
What was measured:
human Y4/PP1 receptor = human Y4/PP1 receptor (Homo sapiens, UniProt P50391); assay: Human Y4/PP1 receptor binding assay ([125I]human PP, membrane protein); conditions: [125I]human PP, membrane protein; read-out: hNPY4 IC50
Summary of the method: (§1)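 Filtration binding with membrane protein and drug dilution, 2 h at room temperature with mixing, radioactivity counted by gamma or scintillation. Y2: 25 pM [125I]PYY in Krebs-Ringer bicarbonate pH 7.4 with 0.01% BSA, nonspecific by 1 μM NPY. Y4/PP1: 50 pM [125I]hPP in HEPES-buffered saline pH 7.4 with protease inhibitors and 0.3% BSA, nonspecific by 1 μM hPP.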

Y2 receptor = target: T1, Y2 receptor (Homo sapiens, UniProt P49146); assay: Y2 receptor binding assay ([125I]PYY, membrane protein); conditions: [125I]PYY, membrane protein; read-out: hNPY2 IC50
T1 sequence (P49146 1-381): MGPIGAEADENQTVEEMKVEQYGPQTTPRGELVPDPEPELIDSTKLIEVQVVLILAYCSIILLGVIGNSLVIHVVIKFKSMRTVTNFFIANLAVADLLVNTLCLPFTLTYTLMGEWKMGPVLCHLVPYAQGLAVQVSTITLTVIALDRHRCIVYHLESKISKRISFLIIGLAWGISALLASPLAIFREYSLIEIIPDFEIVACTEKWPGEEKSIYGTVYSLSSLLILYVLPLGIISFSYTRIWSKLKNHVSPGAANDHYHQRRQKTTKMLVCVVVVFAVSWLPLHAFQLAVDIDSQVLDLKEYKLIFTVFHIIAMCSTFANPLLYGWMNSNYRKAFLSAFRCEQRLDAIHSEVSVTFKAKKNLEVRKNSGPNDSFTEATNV
Summary of the method: as §1

Human NPY5 receptor = target: T2, Human NPY5 receptor (Homo sapiens, UniProt Q15761); assay: Human NPY5 receptor binding assay ([125I]PYY, membrane protein); conditions: [125I]PYY, read-out: hNPY5 IC50
T2 sequence (Q15761 1-445): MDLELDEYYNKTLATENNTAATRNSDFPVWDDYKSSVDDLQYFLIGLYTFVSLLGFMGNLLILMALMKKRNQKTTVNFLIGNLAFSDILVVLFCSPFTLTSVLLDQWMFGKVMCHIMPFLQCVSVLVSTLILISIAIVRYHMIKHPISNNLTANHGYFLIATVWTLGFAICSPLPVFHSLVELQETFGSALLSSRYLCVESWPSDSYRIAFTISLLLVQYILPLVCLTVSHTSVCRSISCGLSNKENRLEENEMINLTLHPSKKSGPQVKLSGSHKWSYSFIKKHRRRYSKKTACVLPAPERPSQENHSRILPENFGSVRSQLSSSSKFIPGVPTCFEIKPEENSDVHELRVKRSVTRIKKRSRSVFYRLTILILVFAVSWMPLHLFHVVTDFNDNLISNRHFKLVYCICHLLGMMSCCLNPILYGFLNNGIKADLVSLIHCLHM
Summary of the method: (§2)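 First, membrane protein, drug dilution and 75-100 pM [125I]PYY were combined in pH 7.4 Tris saline buffer containing divalent cations and 0.1% BSA. Next, samples were mixed 2 hours at room temperature. Finally, samples were filtered, washed ice-cold and counted; 1 μM PYY gave nonspecific binding.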

Rat NPY5 receptor [1] = target: T3, Rat NPY5 receptor (Rattus norvegicus, UniProt Q63634); assay: Rat NPY5 cyclase assay (in vitro functional assay, forskolin-stimulated adenylate cyclase, cAMP); assay type: cell-based; conditions: 10 μM, percentage of forskolin-stimulated adenylate cyclase; for activity at 10 µM: 20 min, read-out: rNPY5 % FSAC (10 μM)
T3 sequence (Q63634 1-445): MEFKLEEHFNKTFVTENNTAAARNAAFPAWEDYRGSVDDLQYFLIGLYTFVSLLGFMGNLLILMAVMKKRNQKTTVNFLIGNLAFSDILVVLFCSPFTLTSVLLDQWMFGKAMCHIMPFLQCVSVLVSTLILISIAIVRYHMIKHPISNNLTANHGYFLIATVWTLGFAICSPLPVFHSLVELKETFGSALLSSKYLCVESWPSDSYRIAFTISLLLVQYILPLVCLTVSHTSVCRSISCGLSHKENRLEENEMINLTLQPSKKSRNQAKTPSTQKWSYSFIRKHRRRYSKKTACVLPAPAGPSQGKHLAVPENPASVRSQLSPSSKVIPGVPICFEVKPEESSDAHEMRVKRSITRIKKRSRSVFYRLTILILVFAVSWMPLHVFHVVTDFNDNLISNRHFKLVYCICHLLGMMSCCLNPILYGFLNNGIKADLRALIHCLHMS
Procedure: D. Rat NYP5 Cyclase Assay (In Vitro Functional Assay)
Cells stably expressing the rat NPY5 receptor are resuspended in serum-free DMEM containing 10 mM HEPES (pH 7.4) and 1 mM isobutylmethylxanthine (IBMX). […] forskolin and drug dilution are then added to the cells. After a 20 minute incubation of the samples at 37° C, the assay is stopped by placing the samples in boiling water for 3 minutes. The cAMP produced in each sample is quantitated with a radioimmunoassay kit (NEN DuPont). Data are expressed as a percentage of forskolin-stimulated adenylate cyclase.

Human NPY1 receptor = target: T4, Human NPY1 receptor (Homo sapiens, UniProt P25929); assay: Human NPY1 receptor binding assay ([125I]PYY, SK-N-MC cells); conditions: [125I]PYY, SK-N-MC cells; read-out: hNPYI IC50
T4 construct: host or cells: SK-N-MC cells
T4 sequence (P25929 1-384): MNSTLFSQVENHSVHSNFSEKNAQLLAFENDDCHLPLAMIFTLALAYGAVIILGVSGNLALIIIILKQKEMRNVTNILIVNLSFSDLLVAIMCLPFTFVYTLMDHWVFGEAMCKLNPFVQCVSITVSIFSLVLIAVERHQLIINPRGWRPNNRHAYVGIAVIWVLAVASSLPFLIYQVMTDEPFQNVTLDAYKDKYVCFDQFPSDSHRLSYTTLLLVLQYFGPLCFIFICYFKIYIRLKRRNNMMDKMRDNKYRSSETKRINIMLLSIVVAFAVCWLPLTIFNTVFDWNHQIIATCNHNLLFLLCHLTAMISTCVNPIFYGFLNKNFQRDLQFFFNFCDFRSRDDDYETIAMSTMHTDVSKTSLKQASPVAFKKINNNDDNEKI
Summary of the method: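 Confluent SK-N-MC cells preincubated 30 min at room temperature in serum-free DMEM/25 mM HEPES pH 7.3 with BSA, bacitracin and PMSF, then incubated 3 h at room temperature with compound and ~50 pM [125I]PYY. Nonspecific binding defined with 1 μM NPY; bound radioactivity counted after Triton X-100 lysis.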

Rat NPY5 receptor [2] = target: T3, Rat NPY5 receptor; assay: Rat NPY5 receptor binding assay ([125I]PYY, membrane protein); conditions: [125I]PYY, read-out: rNPY5 IC50
Summary of the method: as §2

Chain of human Y4/PP1 receptor (P50391 whole entry): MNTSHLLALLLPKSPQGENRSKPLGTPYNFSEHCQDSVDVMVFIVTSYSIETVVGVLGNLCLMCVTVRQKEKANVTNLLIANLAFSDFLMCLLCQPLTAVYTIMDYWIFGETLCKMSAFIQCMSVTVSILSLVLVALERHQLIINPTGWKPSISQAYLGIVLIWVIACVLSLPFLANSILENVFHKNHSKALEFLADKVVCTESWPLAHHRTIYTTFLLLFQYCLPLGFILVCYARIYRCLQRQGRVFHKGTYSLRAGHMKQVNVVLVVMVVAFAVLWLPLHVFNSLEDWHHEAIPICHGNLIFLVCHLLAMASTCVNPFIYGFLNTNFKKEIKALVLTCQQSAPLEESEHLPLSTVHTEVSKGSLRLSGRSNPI

pIC50 (human Y4/PP1 receptor)	pIC50 (Y2 receptor)	pIC50 (Human NPY5 receptor)	activity at 10 µM (Rat NPY5 receptor [1]) [%]	pIC50 (Human NPY1 receptor)	melting point [°C]	pIC50 (Rat NPY5 receptor [2])	rNPY5 % FSAC (10 μM) (Rat NPY5 receptor [1]) [%]	Compound
< 5.30	< 5.30	8.40	92	< 5.30	130 to 132	–	–	O=C(CN1CCC(n2c(=O)[nH]c3ccccc32)CC1)Nc1ccc(C2CCCCC2)cc1 [Compound 251, N-(4-Cyclohexyl-phenyl)-2-[4-(2-oxo-2,3-dihydrobenzoimidazol-1-yl)-piperidin-1-yl]-acetamide]
< 5.30	< 5.30	7.20	99	< 5.30	116 to 117	7.30	–	CCCc1ccc(NC(=O)CN2CCC(n3c(=O)[nH]c4ccccc43)CC2)cc1 [Compound 253, 2-[4-(2-Oxo-2,3-dihydro-benzoimidazol-1-yl)-piperidin-1-yl]-N-(4-propyl-phenyl)-acetamide]
< 5.30	< 5.30	7.37	103	< 5.30	130 to 131	–	–	CCCCc1ccc(NC(=O)CN2CCC(n3c(=O)[nH]c4ccccc43)CC2)cc1 [Compound 254, N-(4-Butyl-phenyl)-2-[4-(2-oxo-2,3-dihydro-benzoimidazol-1-yl)-piperidin-1-yl]-acetamide]
< 5.30	< 5.30	7.13	95	< 5.30	127 to 128	–	–	CCCCCc1ccc(NC(=O)CN2CCC(n3c(=O)[nH]c4ccccc43)CC2)cc1 [Compound 255, 2-[4-(2-Oxo-2,3-dihydro-benzoimidazol-1-yl)-piperidin-1-yl]-N-(4-pentyl-phenyl)-acetamide]
< 5.30	< 5.30	6.92	92	< 5.30	128 to 129	–	–	CCCCCCc1ccc(NC(=O)CN2CCC(n3c(=O)[nH]c4ccccc43)CC2)cc1 [Compound 256, N-(4-Hexyl-phenyl)-2-[4-(2-oxo-2,3-dihydro-benzoimidazol-1-yl)-piperidin-1-yl]-acetamide]
< 5.30	< 5.30	6.96	88	< 5.30	133 to 134	–	–	CC(C)c1ccc(NC(=O)CN2CCC(n3c(=O)[nH]c4ccccc43)CC2)cc1 [Compound 257, N-(4-Isopropyl-phenyl)-2-[4-(2-oxo-2,3-dihydro-benzoimidazol-1-yl)-piperidin-1-yl]-acetamide]
< 5.30	< 5.30	6.82	101	< 5.30	228 to 229	7.06	–	O=C(CN1CCC(n2c(=O)[nH]c3ccccc32)CC1)Nc1ccc(-c2ccc(F)cc2)cc1 [Compound 259, N-(4′-Fluoro-biphenyl-4-yl)-2-[4-(2-oxo-2,3-dihydro-benzoimidazol-1-yl)-piperidin-1-yl]-acetamide]
< 5.30	< 5.30	8.40	97	–	215 to 216	8.52	–	Cl.O=C(CN1CCC(n2c(=O)[nH]c3ccccc32)CC1)Nc1ccc(C(=O)c2ccccc2)cc1 [Compound 263, N-(4-Benzoyl-phenyl)-2-[4-(2-oxo-2,3-dihydro-benzoimidazol-1-yl)-piperidin-1-yl]-acetamide; hydrochloride]
< 5.30	< 5.30	7.38	103	< 5.30	180 to 181	7.72	–	O=C(CN1CCC(n2c(=O)[nH]c3ccccc32)CC1)Nc1ccc(-c2ccccc2)cc1 [Compound 275, N-Biphenyl-4-yl-2-[4-(2-oxo-2,3-dihydro-benzoimidazol-1-yl)-piperidin-1-yl]-acetamide]
< 5.30	< 5.30	–	90	< 5.30	181 to 182	–	–	Cl.O=C(CN1CCC(n2c(=O)[nH]c3ccccc32)CC1)NCCc1ccccc1 [Compound 280, 2-[4-(2-Oxo-2,3-dihydro-benzoimidazol-1-yl)-piperidin-1-yl]-N-phenethyl-acetamide; hydrochloride]
< 5.30	< 5.30	7.42	101	< 5.30	105 to 110	7.72	–	CC(=O)NC1CCN(CC(=O)Nc2ccc(C3CCCCC3)cc2)C1 (centres unmarked) [Compound 290, 2-(3-Acetylamino-pyrrolidin-1-yl)-N-(4-cyclohexyl-phenyl)-acetamide]
–	–	9.33	95	–	258	9.47	–	Cl.O=C(CN1CCC(n2c(=O)[nH]c3ccccc32)CC1)Nc1ccc2c(c1)-c1ccccc1C2=O [Compound 311, 2-[4-(2-Oxo-2,3-dihydro-benzoimidazol-1-yl)-piperidin-1-yl]-N-(9-oxo-9H-fluoren-3-yl)-acetamide; hydrochloride]
–	–	6.96	–	–	289	7.22	101	Cl.O=C(CN1CCC(n2c(=O)[nH]c3ccccc32)CC1)Nc1ccc(-c2ccc(F)cc2)cc1 [Compound 327, N-(4′-Fluoro-biphenyl-4-yl)-2-[4-(2-oxo-2,3-dihydro-benzoimidazol-1-yl)-piperidin-1-yl]-acetamide; hydrochloride]
< 5.30	< 5.30	5.89	104	< 5.30	–	5.92	–	Cc1ccc(NC(=O)CN2CCC(n3c(=O)[nH]c4ccccc43)CC2)cc1 [Compound 359, 2-[4-(2-Oxo-2,3-dihydro-benzoimidazol-1-yl)-piperidin-1-yl]-N-p-tolyl-acetamide, reference compound]

Source: patent publication US6410792B1, “Amide derivatives and methods for using the same as selective neuropeptide Y receptor antagonists” (Bayer Corporation, priority 1997, dated 2002)
